# Test results: ChEMBL document CHEMBL1156367, “Makaluvamine P, a new cytotoxic pyrroloiminoquinone from Zyzzya cf. fuliginosa” (J Nat Prod, 2001)
# Assays:
# KB = assay: Cytotoxicity against human KB cells at 3.2 ug/mL after 48 hrs by XTT assay; type: functional
# [1] = target: Xanthine dehydrogenase/oxidase (Homo sapiens, UniProt P47989); assay: Inhibition of xanthine oxidase by spectrophotometry
# [2] = ABTS radical scavenging activity assessed as trolox equivalents by TEAC assay; type: physicochemical
# Chain of Xanthine dehydrogenase/oxidase (P47989 whole entry): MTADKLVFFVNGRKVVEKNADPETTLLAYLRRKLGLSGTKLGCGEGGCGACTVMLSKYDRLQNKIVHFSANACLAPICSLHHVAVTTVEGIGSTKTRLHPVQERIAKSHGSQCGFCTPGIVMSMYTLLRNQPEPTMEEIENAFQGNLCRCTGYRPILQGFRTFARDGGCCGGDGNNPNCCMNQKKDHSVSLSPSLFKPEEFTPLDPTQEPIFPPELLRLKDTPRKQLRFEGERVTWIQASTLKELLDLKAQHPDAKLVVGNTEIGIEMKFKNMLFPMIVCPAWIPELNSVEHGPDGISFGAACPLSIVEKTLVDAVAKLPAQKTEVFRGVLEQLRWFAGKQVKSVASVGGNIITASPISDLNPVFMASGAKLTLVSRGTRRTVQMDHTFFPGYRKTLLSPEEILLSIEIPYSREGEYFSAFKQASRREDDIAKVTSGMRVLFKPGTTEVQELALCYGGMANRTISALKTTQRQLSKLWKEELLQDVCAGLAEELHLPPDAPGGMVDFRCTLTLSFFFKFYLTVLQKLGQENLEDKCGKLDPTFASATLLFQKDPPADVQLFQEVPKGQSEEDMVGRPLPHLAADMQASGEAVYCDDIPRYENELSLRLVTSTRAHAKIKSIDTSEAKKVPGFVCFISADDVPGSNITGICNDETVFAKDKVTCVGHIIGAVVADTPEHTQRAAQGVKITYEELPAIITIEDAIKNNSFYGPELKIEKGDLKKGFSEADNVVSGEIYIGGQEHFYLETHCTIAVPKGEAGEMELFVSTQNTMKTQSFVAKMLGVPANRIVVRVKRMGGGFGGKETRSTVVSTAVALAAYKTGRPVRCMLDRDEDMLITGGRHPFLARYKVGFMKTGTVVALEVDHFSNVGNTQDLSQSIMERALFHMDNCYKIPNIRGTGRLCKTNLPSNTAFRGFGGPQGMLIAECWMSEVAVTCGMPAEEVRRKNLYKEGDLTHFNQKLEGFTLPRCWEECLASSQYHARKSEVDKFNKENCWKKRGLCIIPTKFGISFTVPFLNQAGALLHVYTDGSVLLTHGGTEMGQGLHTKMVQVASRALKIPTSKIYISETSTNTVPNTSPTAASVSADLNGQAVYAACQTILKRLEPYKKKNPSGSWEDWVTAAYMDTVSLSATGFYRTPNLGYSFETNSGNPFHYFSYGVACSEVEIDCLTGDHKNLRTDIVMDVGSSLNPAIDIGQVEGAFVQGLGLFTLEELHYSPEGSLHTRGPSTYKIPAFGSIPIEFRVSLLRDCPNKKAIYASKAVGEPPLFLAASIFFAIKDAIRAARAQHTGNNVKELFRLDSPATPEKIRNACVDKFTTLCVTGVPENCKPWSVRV
compound,measurement,setting,value
Cn1cc2c3c1C(=O)C(NCCc1ccc(O)cc1)=CC3=[N+](C)CC2.[Cl-] [MAKALUVAMINE P],inhibition at 3.2 µg/mL,KB,64%
same,IC50,[1],16.5 µM
same,Activity,[2],0.341
